Converted amounts (≈) assume the structure as drawn. Read-outs that look alike come from different tables or passages of the source.
Assays:
Helicobacter = conditions: cited from earlier work
23S rRNA = conditions: protein-free 23S rRNA extracts (Noller et al., 1992); cited from earlier work
E. coli = tested on: E. coli; design: key: HS, hypersensitive; R, resistant; S, sensitive; conditions: cited from earlier work
H. pylori [1] = tested on: H. pylori; design: key: HS, hypersensitive; R, resistant; S, sensitive; conditions: cited from earlier work
P. acnes = tested on: P. acnes; design: key: HS, hypersensitive; R, resistant; S, sensitive; conditions: cited from earlier work
H. pylori [2] = assay: MIC value of conventionally characterized H. pylori isolates (clarithromycin); assay type: cell-based, Helicobacter pylori; design: MIC value: unit not given beside the values; conditions: for MIC: Helicobacter pylori
Source text: Evaluating the MIC value determination by in-situ hybridization using conventionally characterized H. pylori isolates.

M. intracellulare = tested on: M. intracellulare; design: key: HS, hypersensitive; R, resistant; S, sensitive; conditions: cited from earlier work
M. pneumoniae = tested on: M. pneumoniae; design: key: HS, hypersensitive; R, resistant; S, sensitive; conditions: cited from earlier work

In the case of `O=C([O-])c1ccccc1[O-].[Bi+3].[OH-]` [BSS], the “Effect on Helicobacter” value (Helicobacter) is given as “bactericidal effect”.

In the case of `CO[C@@H]1[C@@H](O[C@@H]2O[C@H](C)[C@@H](O[C@H]3C[C@@](C)(O)[C@@H](OC(=O)CC(C)C)[C@H](C)O3)[C@H](N(C)C)[C@H]2O)[C@@H](CC=O)C[C@@H](C)C(=O)/C=C/[C@@H]2O[C@@H]2C[C@@H](C)OC(=O)C[C@H]1OC(C)=O` [carbomycin], the “Inhibition of in-vitro peptidyltransferase activity” value (23S rRNA) is listed as “able to inhibit”.

For `O=C(N[C@H](CO)[C@H](O)c1ccc([N+](=O)[O-])cc1)C(Cl)Cl` [chloramphenicol], the Phenotype (E. coli; 23S rRNA mutation A2503C) is given as “Cam^R”, the Phenotype (E. coli; 23S rRNA mutation G2032A) is given as “R” and the Phenotype (E. coli; 23S rRNA mutation G2032C) is given as “S”. The Phenotype (E. coli; 23S rRNA mutation G2032U) was “S” and the Phenotype (E. coli; 23S rRNA mutation G2057A) was “Ery^R, Cam^R”.

In the case of `CC[C@H]1OC(=O)[C@H](C)[C@@H](O[C@H]2C[C@@](C)(OC)[C@@H](O)[C@H](C)O2)[C@H](C)[C@@H](O[C@@H]2O[C@H](C)C[C@H](N(C)C)[C@H]2O)[C@](C)(OC)C[C@@H](C)C(=O)[C@H](C)[C@@H](O)[C@]1(C)O` [clarithromycin], the Phenotype (H. pylori [1]; 23S rRNA mutation A2053C) is given as “Cla^R”, the Phenotype (H. pylori [1]; 23S rRNA mutation A2053G) is given as “Cla^R” and the Phenotype (H. pylori [1]; 23S rRNA mutation A2059G) is given as “Cla^R”. The Phenotype (P. acnes; 23S rRNA mutation A2058G) was “Cla^R, Ery^R”, the Phenotype (P. acnes; 23S rRNA mutation A2059G) was “Cla^R, Ery^R” and the Phenotype (P. acnes; 23S rRNA mutation G2057A) was “Cla^R, Ery^R”. For the same compound, the MIC value (H. pylori [2]; H. pylori strain FD591) was 16/32, the MIC (H. pylori [2]; H. pylori strain HH531) was 48 µg/mL (≈ 64.2 µM) and the MIC (H. pylori [2]; H. pylori strain KJ472) was 16 µg/mL (≈ 21.4 µM). The MIC (H. pylori [2]; H. pylori strain MC028) was 24 µg/mL (≈ 32.1 µM), the MIC (H. pylori [2]; H. pylori strain MC132) was 12 µg/mL (≈ 16 µM) and the MIC (H. pylori [2]; H. pylori strain MC141) was > 256 µg/mL. For the same compound, the MIC (H. pylori [2]; H. pylori strain MPS1726) was > 256 µg/mL, the MIC (H. pylori [2]; H. pylori strain MPS1765) was > 256 µg/mL and the MIC (H. pylori [2]; H. pylori strain MPS3137) was 96 µg/mL (≈ 128 µM). The MIC (H. pylori [2]; H. pylori strain MPS3286) was > 256 µg/mL, the Phenotype (M. intracellulare; 23S rRNA mutation A2053C) was “Cla^R” and the Phenotype (M. intracellulare; 23S rRNA mutation A2058G) was “Cla^R”. The Phenotype (M. intracellulare; 23S rRNA mutation A2058U) was “Cla^R”.

In the case of `CC[C@H]1OC(=O)[C@H](C)[C@@H](O[C@H]2C[C@@](C)(OC)[C@@H](O)[C@H](C)O2)[C@H](C)[C@@H](O[C@@H]2O[C@H](C)C[C@H](N(C)C)[C@H]2O)[C@](C)(O)C[C@@H](C)C(=O)[C@H](C)[C@@H](O)[C@]1(C)O` [erythromycin], the Phenotype (M. pneumoniae; 23S rRNA mutation A2058G) is given as “Ery^R”, the Phenotype (M. pneumoniae; 23S rRNA mutation A2059G) is given as “Ery^R” and the Phenotype (P. acnes; 23S rRNA mutation A2058G) is given as “Cla^R, Ery^R”. For the same compound, the Phenotype (P. acnes; 23S rRNA mutation A2059G) was “Cla^R, Ery^R”, the Phenotype (P. acnes; 23S rRNA mutation G2057A) was “Cla^R, Ery^R” and the Phenotype (E. coli; 23S rRNA mutation A2058G) was “Ery^R”. The Phenotype (E. coli; 23S rRNA mutation A2058U) was “Ery^R”, the Phenotype (E. coli; 23S rRNA mutation C2611U) was “Ery^RLin^RSgb^R” and the Phenotype (E. coli; 23S rRNA mutation G2032A) was “HS”. For the same compound, the Phenotype (E. coli; 23S rRNA mutation G2032C) was “HS”, the Phenotype (E. coli; 23S rRNA mutation G2032U) was “HS” and the Phenotype (E. coli; 23S rRNA mutation G2057A) was “Ery^R, Cam^R”.

In the case of `CCC[C@@H]1C[C@@H](C(=O)N[C@@H]([C@H]2O[C@H](SC)[C@H](O)[C@@H](O)[C@H]2O)[C@@H](C)O)N(C)C1` [lincomycin], the Phenotype (E. coli; 23S rRNA mutation C2611U) is given as “Ery^RLin^RSgb^R”.
